# Assay results: US20260258039A1, “AROMATIC COMPOUND, METHOD FOR PREPARING SAME, AND USE THEREOF IN PREPARATION OF ESTROGEN RECEPTOR DEGRADER” (Hinova Pharmaceuticals Inc., priority 2022, published 2026)
# pIC50: −log10 of the molar value. Read-outs that look alike come from different tables or passages of the source.
# Assays:
# Assay type in all cases: cell-based
# ER [1] = target: T1, ER (Homo sapiens, UniProt P03372); experiment: Degradation activities on ER (Western blotting) in T47D breast cancer cells; settings: 24 h, Western blot
# T1 construct: T47D breast cancer cells were subcultured in cell culture medium; endogenous in cells; host or cells: T47D breast cancer cells
# T1 sequence (P03372 1-595): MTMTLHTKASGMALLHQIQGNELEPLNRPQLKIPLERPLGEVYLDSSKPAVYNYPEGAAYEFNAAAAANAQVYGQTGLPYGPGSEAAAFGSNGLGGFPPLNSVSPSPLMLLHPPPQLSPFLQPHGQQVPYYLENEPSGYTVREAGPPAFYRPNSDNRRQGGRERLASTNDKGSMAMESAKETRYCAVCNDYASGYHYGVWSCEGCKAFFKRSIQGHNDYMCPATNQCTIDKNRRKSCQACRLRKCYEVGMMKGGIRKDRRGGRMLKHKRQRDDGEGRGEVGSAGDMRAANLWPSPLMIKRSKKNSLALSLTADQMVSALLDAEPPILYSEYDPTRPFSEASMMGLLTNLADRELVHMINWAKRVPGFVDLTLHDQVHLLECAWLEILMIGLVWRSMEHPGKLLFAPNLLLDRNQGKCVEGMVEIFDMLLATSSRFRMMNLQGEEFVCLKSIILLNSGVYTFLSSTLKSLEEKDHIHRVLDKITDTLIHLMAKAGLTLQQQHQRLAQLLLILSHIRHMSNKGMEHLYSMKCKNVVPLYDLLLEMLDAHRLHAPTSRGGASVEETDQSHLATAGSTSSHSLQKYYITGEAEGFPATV
# Protocol: T47D breast cancer cells were subcultured in cell culture medium, and the cells in good growth condition were seeded into 6-well plate at 2 mL/well, with 2.5×10^5 cells per well. The cells were incubated overnight in a 37° C. incubator under 5% CO2. The drug was prepared into 10 mM stock solution with dimethyl sulfoxide (DMSO). Prior to use, the stock solution was diluted with DMSO in a ratio of 1:3. […] of the diluted compound was added to the cell culture wells (to ensure a DMSO concentration of 0.1% in the culture system), and each concentration was repeated twice. The plate were gently shaken to mix. Additionally, the negative control wells (containing equal amount of DMSO) and the positive control wells were set up. After 24 hours of culture, the cells were lysed with RIPA cell lysis buffer to extract proteins, and the protein concentration was measured using a BCA kit. The protein loading buffer (5×) was added, and the plate was heated at 100° C. for 5 min. Then, the sample was stored at −20° C. […] of protein collected from each well was loaded onto a polyacrylamide gel for electrophoresis. The protein is transferred from the polyacrylamide gel to a PVDF membrane, blocked with 5% skim milk at room temperature for 1 h, and incubated overnight at 4° C. with primary antibodies Anti-ERα rabbit mAb (CST, Cat #: 8644S) and Anti-GAPDH rabbit mAb (CST, Cat #: 2118L). The membrane was washed three times with TBST solution, with 10 min for each time. The secondary antibody (horseradish peroxidase-labeled goat anti-rabbit IgG) was incubated at room temperature for 2 h, and then the membrane was washed three times with TBST solution, with 10 min for each time. Finally, ECL chromogenic solution was added for color development, and an automatic chemiluminescence instrument was used to take pictures. Images were collected and analyzed.
# The degradation activities of the compounds according to the present invention towards ER, as tested by western blotting, are presented in Table 2
# [2] = tested on: MCF-7 breast cancer cells; experiment: Inhibition of proliferation of MCF-7 breast cancer cells (agarose culture, CellTiter-Glo 3D); settings: Homo sapiens, MCF7, 360 h, MCF-7 cells, 15 days of cultivation; read-out: IC50
# Protocol: After 1.6% agarose and 0.7% agarose were sterilized at high temperature, they were cooled to around 50° C., and placed in a 42° C. water bath for later use. MCF-7 breast cancer cells were subcultured in complete cell culture medium, and cells in good growth condition were digested and counted for future use. 50 µL of 1.6% agarose mixed with 2× culture medium at a ratio of 1:1 was spread into the bottom of 96-well plate, and allowed to cool and solidify. 0.7% agarose was mixed with diluted cell suspension in a ratio of 1:1, and then 50 µL of the mixture of gel and cells was added to each well, with 2000 cells for each well; the mixture was allowed to cool and solidify at room temperature. 50 μL of culture medium was added to the plate containing cells, and the plate was placed in a 37° C., 5% CO2 incubator and cultured for 24 h. The drug was prepared into 10 mM stock solution with dimethyl sulfoxide (DMSO). The stock solution was diluted in a ratio of 1:3, to obtain 9 concentration gradients. Then, each concentration of compound solution was further diluted with culture medium in 1:250 (to ensure a DMSO concentration of 0.1% in the culture system). Two replicate wells was set for each concentration. 50 μL of the diluted compound solution was added to the cell culture wells (with final concentrations of 10 μM, 3.3 μM, 1.1 μM, 0.37 μM . . . ). The plate was gently shaken for mixing. Additionally, 3 negative control wells only containing cells and 3 blank control wells only containing culture medium were set up (each of the 6 wells was added with 50 μL of DMSO diluted with culture medium in a ration of 1:250). After 15 days of cultivation, the cell plates and CellTiter-Glo 3D Cell Viability were taken out and equilibrated to room temperature in advance. 80 μL of culture medium were aspirated and discarded from the cell plate, and 120 µL of CellTiter-Glo 3D Cell Viability solution was added to each well. The plates were centrifuged at 1200 rpm/min for 5 min, and then placed in the dark and kept for 25 min. The […] were measured using a multi-function microplate reader. The data were analyzed using the Dose-response-inhibition equation in GraphPad Prism8 software, and the IC50 values were obtained, as shown in Table 3.
# ER [3] = target: T1, ER; experiment: Degradation activities on ER (ELISA) in T47D breast cancer cells; settings: for DC50: concentration required to degrade 50% of the target protein
# Outline: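 Cellular ER degradation ELISA: compound dosed 24 h on T47D cells (2.5×10^4/well, pre-grown 3 days) at six final levels from 100 nM downward. Remaining ER was detected by HRP-TMB absorbance at 450 nm. Dose-response fitting gave DC50 and Dmax, the maximal percentage degraded.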
# [4] = T47D cells, 24 h, ELISA, maximum percentage of target protein degraded, read-out: Dmax
Percentage reduction of ER (ER [1]; compound concentration 10 nM),pIC50 [2],Percentage reduction of ER (ER [1]; compound concentration 1 nM),Percentage reduction of ER (ER [1]; compound concentration 100 nM),"DC50 (ER [3]; T47D cells, 24 h, ELISA)",Dmax (ER [3]; [4]),Structure (SMILES),Dmax (ER [3]; T47D)
74%,7.30 to 7.96,–,–,–,–,O=C1CCC(N2Cc3cc(N4CC5(CCN(CC6CCN(c7ccc([C@@H]8c9ccc(O)cc9CC[C@@H]8c8ccccc8)cc7)CC6)CC5)C4)ccc3C2=O)C(=O)N1 (stereo partly drawn) [Example 4],–
–,> 8.00,87%,–,–,–,"O=C1CCC(N2Cc3cc(N4CC5CN(CC6CCN(c7ccc([C@@H]8c9ccc(O)cc9OC[C@@H]8c8ccccc8)cc7)CC6)CC5C4)ccc3C2=O)C(=O)N1 (stereo partly drawn) [Example 83, 3-(5-(5-((1-(4-((3S, 4R)-7-hydroxyl-3-phenylchroman-4-yl)phenyl)piperidin-4-yl)methyl)hexahydropyrrolo[3,4-c]pyrrole-2(1H)-yl)-1-oxoisoinodolin-2-yl)piperidin-2,6-dione]",–
–,–,–,51%,> 100 nM,< 50%,"O=C1CCC(N2Cc3cc(N4CC5(CCN(CC6CCN(c7ccc([C@H]8c9ccc(O)cc9OC[C@H]8c8ccccc8F)cc7)CC6)CC5)C4)ccc3C2=O)C(=O)N1 (stereo partly drawn) [Example 34, 3-(5-(7-((1-(4-((3R,4S)-3-(2-fluorophenyl)-7-hydroxychroman-4-yl)phenyl)piperidin-4-yl)methyl)-2,7-diazaspiro[3.5]nonane-2-yl)-1-oxoisoindol-2-yl)piperidin-2,6-dione]",–
–,–,53%,–,> 100 nM,< 50%,"O=C1CCC(N2Cc3cc(N4CCC5(CCN(CC6CCN(c7ccc([C@@H]8c9ccc(O)cc9CC[C@@H]8c8ccccc8)cc7)CC6)C5)C4)ccc3C2=O)C(=O)N1 (stereo partly drawn) [Example 2, 3-(5-(7-((1-(4-((1R,2S)-6-hydroxyl-2-phenyl-1,2,3,4-tetrahydronaphthalen-1-yl)phenyl)piperidin-4-yl)methyl)-2,7-diazaspiro[4.4]nonane-2-yl)-1-oxoisoinodolin-2-yl)piperidin-2,6-dione]",–
71%,–,–,–,< 10 nM,50 to 75%,O=C1CCC(N2C(=O)c3ccc(N4CCC(CN5CCC6(CC5)CN(c5ccc([C@@H]7c8ccc(O)cc8CC[C@@H]7c7ccccc7)cc5)C6)CC4)cc3C2=O)C(=O)N1 (stereo partly drawn) [Example 1],–
–,–,–,57%,> 100 nM,< 50%,"O=C1CCC(N2C(=O)c3ccc(N4CC5(CN(CC6CCN(c7ccc([C@@H]8c9ccc(O)cc9CC[C@@H]8c8ccccc8)cc7)CC6)C5)C4)cc3C2=O)C(=O)N1 (stereo partly drawn) [Example 54, 2-(2,6-dioxopiperidin-3-yl)-5-(6-((1-(4-((1R,2S)-6-hydroxyl-2-phenyl-1,2,3,4-tetrahydronaphthalen-1-yl)phenyl)piperidin-4-yl)methyl)-2,6-diazaspiro[3.3]heptan-2-yl)isoinodolin-1,3-dione]",–
–,–,59%,–,–,–,"O=C1CCC(N2Cc3cc(N4CC5(CN(CC6CCN(c7ccc([C@H]8c9ccc(O)cc9OC[C@H]8c8ccccc8)cc7)CC6)C5)C4)ccc3C2=O)C(=O)N1 (stereo partly drawn) [Example 56, 3-(5-(6-((1-(4-((3R,4S)-7-hydroxyl-3-phenyl-chroman-4-yl)phenyl)piperidin-4-yl)methyl)-2,6-diazaspiro[3.3]heptane-2-yl)-1-oxoisoinodolin-2-yl)piperidin-2,6-one]",–
47%,–,–,–,> 100 nM,< 50%,"O=C1CCC(N2C(=O)c3ccc(N4CC5CN(CC6CCN(c7ccc([C@@H]8c9ccc(O)cc9CC[C@@H]8c8ccccc8)cc7)CC6)CC5C4)cc3C2=O)C(=O)N1 (stereo partly drawn) [Example 25, 2-(2,6-dioxopiperidin-3-yl)-5-(5-((1-(4-((1R,2S)-6-hydroxyl-2-phenyl-1,2,3,4-tetrahydronaphthalen-1-yl)phenyl)piperidin-4-yl)methyl)hexahydropyrrolo[3,4-c]pyrrole-2(1H)-yl)isoinodolin-1,3-dione]",–
–,–,–,25%,> 100 nM,< 50%,"O=C1CCC(N2C(=O)c3ccc(N4CC(N5CCN(c6ccc([C@@H]7c8ccc(O)cc8CC[C@@H]7c7ccccc7)cc6)CC5)C4)cc3C2=O)C(=O)N1 (stereo partly drawn) [Example 55, 2-(2,6-dioxopiperidin-3-yl)-5-(3-(4-(4-((1R,2S)-6-hydroxyl-2-phenyl-1,2,3,4-tetrahydronaphthalen-1-yl)phenyl)piperazine-1-yl)azetidin-1-yl)isoinodolin-1,3-dione]",–
–,–,50%,–,–,–,"O=C1CCC(N2C(=O)c3ccc(N4CC5(CCN(CC6CCN(c7ccc([C@H]8c9ccc(O)cc9OC[C@H]8c8ccccc8)cc7)CC6)CC5)C4)cc3C2=O)C(=O)N1 (stereo partly drawn) [Example 80, 2-(2,6-dioxopiperidin-3-yl)-5-(7-((1-(4-((3R,4S)-7-hydroxyl-3-phenylchroman-4-yl)phenyl)piperidin-4-yl)methyl)-2,7-diazaspiro[3.5]nonane-2-yl)isoinodolin-1,3-dione]",–
–,–,39%,–,> 100 nM,< 50%,"O=C1CCC(N2C(=O)c3ccc(N4CCC5(CCN(CC6CCN(c7ccc([C@@H]8c9ccc(O)cc9CC[C@@H]8c8ccccc8)cc7)CC6)C5)C4)cc3C2=O)C(=O)N1 (stereo partly drawn) [Example 53, 2-(2,6-dioxopiperidin-3-yl)-5-(7-((1-(4-((1R,2S)-6-hydroxyl-2-phenyl-1,2,3,4-tetrahydronaphthalen-1-yl)phenyl)piperidin-4-yl)methyl)-2,7-diazaspiro[4.4]nonane-2-yl)isoinodolin-1,3-dione]",–

Structure (SMILES),Percentage reduction of ER (ER [1]; compound concentration 10 nM),pIC50 [2],Percentage reduction of ER (ER [1]; compound concentration 1 nM),Percentage reduction of ER (ER [1]; compound concentration 100 nM),"DC50 (ER [3]; T47D cells, 24 h, ELISA)",Dmax (ER [3]; [4]),Dmax (ER [3]; T47D)
"O=C1CCC(N2Cc3cc(N4CCC5(CC4)CN(CC4CCN(c6ccc([C@@H]7c8ccc(O)cc8CC[C@@H]7c7ccccc7)cc6)CC4)C5)ccc3C2=O)C(=O)N1 (stereo partly drawn) [Example 27, 3-(5-(2-((1-(4-((1R,2S)-6-hydroxyl-2-phenyl-1,2,3,4-tetrahydronaphthalen-1-yl)phenyl)piperidin-4-yl)methyl)-2,7-diazaspiro[3.5]nonan-7-yl)-1-oxoisoinodolin-2-yl)piperidin-2,6-dione]",–,–,78%,–,> 100 nM,–,< 50%
O=C1CCC(N2Cc3cc(N4CCC(N5CC6(CCN(c7ccc([C@@H]8c9ccc(O)cc9CC[C@@H]8c8ccccc8)cc7)CC6)C5)CC4)ccc3C2=O)C(=O)N1 (stereo partly drawn) [Example 12],84%,–,–,–,10 to 50 nM,–,> 75%
